The values that follow are results of earlier work, collected in patent publication US20100311674A1, “PHARMACEUTICAL COMPOSITIONS WITH A MECHANISM OF MULTI-TARGET RECEPTOR RETROACTION FOR TREATING DEPRESSION” (Yu-Fen Chi, priority 2007, published 2010).

The conditions of data set [1]: in the human body; cited from earlier work.
For data set [2] the following is noted: cited from earlier work.

As for `CC1(C)[C@@H](O[C@H]2O[C@H](C(=O)O)[C@@H](O)[C@H](O)[C@H]2O[C@@H]2O[C@H](C(=O)O)[C@@H](O)[C@H](O)[C@H]2O)CC[C@]2(C)[C@H]3C(=O)C=C4[C@@H]5C[C@@](C)(C(=O)O)CC[C@]5(C)CC[C@@]4(C)[C@]3(C)CC[C@@H]12` [glycyrrhizic acid], the “Conversion rate of glycyrrhizic acid to glycyrrhetinic acid” value in data set [1] is given as about 100%. Turning to `COc1ccc(C2CNC(=O)C2)cc1OC1CCCC1` (stereo not drawn) [Rolipram], in data set [2] (clinical trials), the “Anti-depression function (in words)” value is reported as “obvious anti-depression function”. Also, the “Side effect (in words)” value in data set [2] (in vivo) was “severe emesis”.
